According to patent US20080305040A1, “In Vivo or in Vitro Method For Detecting Amyloid Deposits Having at Least One Amyloidogenic Protein” (UNIVERSITY OF PITTSBURGH, priority 2005, published 2008):

System: amyloid deposits in heart tissue, lung tissue, bladder tissue, lymph node tissue and bone from a subject with AL amyloidosis
Test: Imaging of tissues from AL amyloidosis subject: staining of paraffin sections, viewed with a UV filter set
Format: binding
Settings: 100 nM stain, 60 min, deparaffinized paraffin sections from a subject with AL amyloidosis, FIG. 1
Method: Paraffin sections of heart, lung, bladder, lymph node and bone from a subject with AL amyloidosis were deparaffinized in xylene and stained with 100 nM X-34 [Styren et al. J Histochem Cytochem 48:1223-1232 (2000)] in 20% ethanol/80% 150 mM Tris Buffer (pH 7.4) or 100 nM 2-(4′-methylaminophenyl)-6-cyanobenzothiazole (6-CN-BTA-1) [Mathis et al. J Med Chem 46:2740-2754 (2003)] in PBS (pH 7.4) for 60 min followed by a brief, 5 second wash in water followed by coverslipping and viewing with an UV filter set (FIG. 1).

SMILES	binding to amyloid deposits in heart tissue, lung tissue, bladder tissue, lymph node tissue and bone
O=C(O)c1cc(/C=C/c2ccc(/C=C/c3ccc(O)c(C(=O)O)c3)cc2)ccc1O [Example X-34]	binding
CNc1ccc(-c2nc3ccc(C#N)cc3s2)cc1 [Example 6-CN-BTA-1, 2-(4′-methylaminophenyl)-6-cyanobenzothiazole]	binding
